Data published in patent US9681664B2, “Macrocyclic picolinamides as fungicides” (Dow Agrosciences LLC, priority 2012, dated 2017).
Where two headings read alike, the source gives them in different places.

Key:
[1] = test system: Mycosphaerella graminicola; Anamorph: Septoria tritici; assay: Leaf blotch of wheat (SEPTTR) disease control on wheat seedlings; type: in vivo; details: Zymoseptoria tritici, High volume application, 100 ppm
Description: Technical grades of materials were dissolved in acetone, which were then mixed with nine volumes of water containing 110 ppm Triton X-100. The fungicide solutions were applied onto wheat seedlings using an automated booth sprayer to run-off. All sprayed plants were allowed to air dry prior to further handling. All fungicides were evaluated using the aforementioned method for their activity vs. all target diseases. Wheat leaf blotch and brown rust activity were also evaluated using track spray applications, in which case the fungicides were formulated as EC formulations, containing 0.1% Trycol 5941 in the spray solutions. Wheat plants (variety Yuma) were grown from seed in a greenhouse in 50% mineral soil/50% soil-less Metro mix until the first leaf was fully emerged, with 7-10 seedlings per pot. These plants were inoculated with an aqueous spore suspension of Septoria tritici either prior to or after fungicide treatments. After inoculation the plants were kept in 100% relative humidity (one day in a dark dew chamber followed by two to three days in a lighted dew chamber at 20° C.) to permit spores to germinate and infect the leaf. The plants were then transferred to a greenhouse set at 20° C. for disease to develop. When disease symptoms were fully expressed on the 1st leaves of untreated plants, infection levels were assessed on a scale of 0 to 100 percent disease severity. Percent disease control was calculated using the ratio of disease severity on treated plants relative to untreated plants.

[2] = test system: Puccinia triticina; Synonym: Puccinia recondite f. sp. tritici; assay: Wheat brown rust (PUCCRT) disease control on wheat seedlings; type: in vivo; details: Puccinia triticina, High volume application, 100 ppm
Description: Technical grades of materials were dissolved in acetone, which were then mixed with nine volumes of water containing 110 ppm Triton X-100. The fungicide solutions were applied onto wheat seedlings using an automated booth sprayer to run-off. All sprayed plants were allowed to air dry prior to further handling. All fungicides were evaluated using the aforementioned method for their activity vs. all target diseases. Wheat leaf blotch and brown rust activity were also evaluated using track spray applications, in which case the fungicides were formulated as EC formulations, containing 0.1% Trycol 5941 in the spray solutions. Wheat plants (variety Yuma) were grown from seed in a greenhouse in 50% mineral soil/50% soil-less Metro mix until the first leaf was fully emerged, with 7-10 seedlings per pot. These plants were inoculated with an aqueous spore suspension of Puccinia triticina either prior to or after fungicide treatments. After inoculation the plants were kept in a dark dew room at 22° C. with 100% relative humidity overnight to permit spores to germinate and infect the leaf. The plants were then transferred to a greenhouse set at 24° C. for disease to develop. Fungicide formulation, application and disease assessment followed the procedures as described in the Example A.

[3] = 24 h, 1 Day Protectant, read-out: SEPTTR 1DP disease control
[4] = 72 h, 3 Day Curative, read-out: SEPTTR 3DC disease control
[5] = 24 h, 1 Day Protectant, read-out: PUCCRT 1DP disease control
[6] = 72 h, 3 Day Curative, read-out: PUCCRT 3DC disease control

SMILES | pest or weed control at 100 ppm [1, 3] [%] | pest or weed control at 100 ppm [1, 4] [%] | pest or weed control at 100 ppm [2, 5] [%] | pest or weed control at 100 ppm [2, 6] [%]
C=C(C)CO[C@H]1[C@H](C)OC(=O)[C@@H](NC(=O)c2nccc(OC)c2O)CCC[C@@H]1OCC(=C)C [F14, 3-hydroxy-4-methoxy-N-((3S,7S,8S,9S)-9-methyl-7,8-bis((2-methylallyl)oxy)-2-oxooxonan-3-yl)pyridine-2-carboxamide] | < 0 | 80 to 100 | 80 to 100 | 80 to 100
COc1ccnc(C(=O)N[C@H]2CCC[C@H](OCc3ccccc3)[C@@H](OCc3ccccc3)[C@H](C)OC2=O)c1O [F22] | 80 to 100 | 80 to 100 | 80 to 100 | 80 to 100
COc1ccnc(C(=O)N[C@H]2CCC[C@H](OCc3ccccc3)[C@@H](Oc3ccccc3)[C@H](C)OC2=O)c1O [F23] | 80 to 100 | 80 to 100 | 80 to 100 | 80 to 100
COc1ccnc(C(=O)N[C@H]2CCC[C@H](Oc3ccccc3)[C@@H](OCc3ccccc3)[C@H](C)OC2=O)c1O [F24] | 80 to 100 | 80 to 100 | 80 to 100 | 80 to 100
COc1ccnc(C(=O)N[C@H]2CCC[C@H](OCC(C)C)[C@@H](Oc3ccccc3)[C@H](C)OC2=O)c1O [F25] | 80 to 100 | 80 to 100 | 80 to 100 | 80 to 100
COc1ccnc(C(=O)N[C@H]2CCC[C@H](Oc3ccccc3)[C@@H](OCC(C)C)[C@H](C)OC2=O)c1O [F27] | 80 to 100 | 80 to 100 | 80 to 100 | 80 to 100
COc1ccnc(C(=O)N[C@H]2CCC[C@H](Oc3ccccc3)[C@@H](OCc3ccccc3)[C@H](C)OC2=O)c1OCOC(C)=O [F32] | 80 to 100 | 80 to 100 | 80 to 100 | 80 to 100
COc1ccnc(C(=O)N[C@H]2CCC[C@H](OCC(C)C)[C@@H](OC3CCCC3)[C@H](C)OC2=O)c1O [F33] | 0 to 80 | 80 to 100 | 80 to 100 | 80 to 100
COc1ccnc(C(=O)N[C@H]2CCC[C@H](OCC(C)C)[C@@H](OCCCc3ccccc3)[C@H](C)OC2=O)c1O [F40] | 0 to 80 | 0 to 80 | 80 to 100 | 80 to 100
COc1ccnc(C(=O)N[C@H]2CCC[C@H](OCC(C)C)[C@@H](OC(=O)C3CC3)[C@H](C)OC2=O)c1OC(C)=O [F42] | 80 to 100 | 80 to 100 | 80 to 100 | 80 to 100
COc1ccnc(C(=O)N[C@H]2CCC[C@H](OCC(C)C)[C@@H](OCCCc3ccccc3)[C@H](C)OC2=O)c1OCOC(C)=O [F43] | 80 to 100 | 80 to 100 | 80 to 100 | 80 to 100
COc1ccnc(C(=O)N[C@H]2CCC[C@H](Oc3ccc(F)cc3)[C@@H](Oc3ccc(F)cc3)[C@H](C)OC2=O)c1OCOC(C)=O [F48] | 80 to 100 | 80 to 100 | 80 to 100 | 80 to 100
COc1ccnc(C(=O)N[C@H]2CCC[C@H](Oc3ccc(F)cc3)[C@@H](Oc3ccc(F)cc3)[C@H](C)OC2=O)c1OCOC(=O)C(C)C [F49] | 80 to 100 | 80 to 100 | 80 to 100 | 80 to 100
COc1ccnc(C(=O)N[C@H]2CCC[C@H](OCC(C)C)[C@@H](OCCCC(F)(F)F)[C@H](C)OC2=O)c1OCOC(=O)C(C)C [F51] | 80 to 100 | 80 to 100 | 80 to 100 | 80 to 100
COc1ccnc(C(=O)N[C@H]2CCC[C@H](OCC(C)C)[C@@H](OC(=O)C3CC3)[C@H](C)OC2=O)c1OCOC(=O)C(C)C [F52] | 80 to 100 | 80 to 100 | 80 to 100 | 80 to 100
COc1ccnc(C(=O)N[C@H]2CCC[C@H](OCC(C)C)[C@@H](OC/C=C/C(F)(F)F)[C@H](C)OC2=O)c1O [F53] | 80 to 100 | 0 to 80 | 80 to 100 | 80 to 100
COc1ccc(O[C@H]2CCC[C@H](NC(=O)c3nccc(OC)c3O)C(=O)O[C@@H](C)[C@@H]2Oc2ccc(F)cc2)cc1 [F54] | 80 to 100 | 0 to 80 | 80 to 100 | 80 to 100
COc1ccnc(C(=O)N[C@H]2CCC[C@H](Oc3ccc(F)cc3)[C@@H](OCC(C)C)[C@H](C)OC2=O)c1O [F56] | 80 to 100 | 80 to 100 | 80 to 100 | 80 to 100
COc1ccc(O[C@H]2[C@H](C)OC(=O)[C@@H](NC(=O)c3nccc(OC)c3O)CCC[C@@H]2OCC(C)C)cc1 [F57] | 80 to 100 | 80 to 100 | 80 to 100 | 80 to 100
COc1ccnc(C(=O)N[C@H]2CCC[C@H](OCC(C)C)[C@@H](OC/C=C/C(F)(F)F)[C@H](C)OC2=O)c1OC(C)=O [F58] | 80 to 100 | 80 to 100 | 80 to 100 | 80 to 100
COc1ccc(O[C@H]2CCC[C@H](NC(=O)c3nccc(OC)c3OCOC(C)=O)C(=O)O[C@@H](C)[C@@H]2Oc2ccc(F)cc2)cc1 [F60] | 80 to 100 | 80 to 100 | 80 to 100 | 80 to 100
COc1ccnc(C(=O)N[C@H]2CCC[C@H](OCC(C)C)[C@@H](Oc3ccc(F)cc3)[C@H](C)OC2=O)c1OCOC(C)=O [F61] | 80 to 100 | 80 to 100 | 80 to 100 | 80 to 100
COc1ccnc(C(=O)N[C@H]2CCC[C@H](OCC(C)C)[C@@H](Oc3ccc(F)cc3)[C@H](C)OC2=O)c1OCOC(=O)C(C)C [F62] | 80 to 100 | 80 to 100 | 80 to 100 | 80 to 100
COc1ccc(O[C@H]2[C@H](C)OC(=O)[C@@H](NC(=O)c3nccc(OC)c3O)CCC[C@@H]2Oc2ccc(OC)cc2)cc1 [F64] | 0 to 80 | 0 to 80 | 0 to 80 | < 0
COc1ccc(O[C@H]2CCC[C@H](NC(=O)c3nccc(OC)c3O)C(=O)O[C@@H](C)[C@@H]2OCC(C)C)cc1 [F65] | 80 to 100 | 0 to 80 | 80 to 100 | 80 to 100
COc1ccc(O[C@H]2[C@H](C)OC(=O)[C@@H](NC(=O)c3nccc(OC)c3OCOC(C)=O)CCC[C@@H]2Oc2ccc(OC)cc2)cc1 [F66] | 80 to 100 | 0 to 80 | 80 to 100 | 80 to 100
COc1ccc(O[C@H]2[C@H](C)OC(=O)[C@@H](NC(=O)c3nccc(OC)c3OCOC(=O)C(C)C)CCC[C@@H]2Oc2ccc(OC)cc2)cc1 [F67] | 80 to 100 | 0 to 80 | 80 to 100 | 80 to 100
COc1ccc(O[C@H]2CCC[C@H](NC(=O)c3nccc(OC)c3OCOC(=O)C(C)C)C(=O)O[C@@H](C)[C@@H]2OCC(C)C)cc1 [F69] | 80 to 100 | 80 to 100 | 80 to 100 | 80 to 100
CCCCCO[C@H]1[C@H](C)OC(=O)[C@@H](NC(=O)c2nccc(CC)c2O)CCC[C@@H]1OCC(C)C [F70] | 0 to 80 | 0 to 80 | 0 to 80 | 0 to 80
